Experimental data published in article PMC9863297, “Intermolecular Interactions of Edaravone in Aqueous Solutions of Ethaline and Glyceline Inferred from Experiments and Quantum Chemistry Computations” (Molecules, 2023).
Like-named read-outs stand apart in the source and are kept apart here.

Assay: Edaravone solubility, slurry/shake-flask method with spectrophotometric determination at 243 nm
Format: physicochemical
Conditions: thermodynamic from solid, read-out: cE solubility concentration
Experimental: The first step in obtaining a calibration curve was the preparation of a stock solution of edaravone with a concentration of 2.3 mg/mL. This initial solution was successfully diluted in 10 mL volumetric flasks with methanol and the obtained solutions with decreasing concentrations were measured spectrophotometrically. […] Three separate curves were obtained, and the final curve resulted from averaging. […] The limits of detection (LOD) and quantification (LOQ) were calculated as 5.899∙10^−4 mg/mL and 1.770∙10^−3 mg/mL, respectively.
All of the studied deep eutectic solvents included choline chloride, while the second constituent was either glycerol or ethylene glycol. In order to prepare a DES formulation, choline chloride was mixed with the second compound in different molar ratios in sealed test tubes and placed in a water bath at 363.15 K until the formation of a uniform solution. The obtained DES were either used in their neat form or water was added to them in different proportions in order to form binary systems.
During the next stage, edaravone was added in excess amounts to the test tubes containing both neat DES and binary mixtures, which enabled us to obtain its saturated solutions. Samples prepared in such a manner were placed in an Orbital Shaker Incubator ES-20/60 from Biosan (Riga, Latvia) and incubated for 24 h at different temperatures, namely 298.15 K, 303.15 K, 308.15 K and 313.15 K. The temperature adjustment accuracy was 0.1 K and its variability in a 24 h cycle was ±0.5 K. Apart from heating, all of the samples were mixed at 60 rev/min. The increased viscosity and density of DES systems required the samples to be centrifuged at 1000 rev/min for 5 min with the use of EBA 20 centrifuge from Hettich (Tuttlingen, Germany) enabling the undissolved precipitate to remain on the bottom of the test tubes. Next, the samples were filtered using a syringe equipped with a PTFE syringe filer with 0.22 µm pore size. In order to avoid precipitation, the test tubes, syringes and filters were initially heated at a temperature equal to the one of the handled samples. Finally, small amounts of the obtained filtrate were transferred to test tubes filled with methanol and the diluted samples were measured spectrophotometrically. Additionally, for the determination of the mole fractions of edaravone, the density of the samples was measured by weighing a fixed volume of the solution in 10 mL volumetric flasks.
For determining the solubility of edaravone in the studied systems, the samples prepared, as described above, were measured spectrophotometrically using an A360 spectrophotometer from AOE Instruments (Shanghai, China). The spectra were recorded in the 190 nm to 500 nm wavelength range and 1 nm resolution. Methanol was used for the initial calibration of the spectrophotometer and for the dilution of the measured samples, which was conducted in order for the absorbance values to remain below 2.5. The absorbance values at 243 nm were taken into account and based on the calibration curve prepared earlier, the concentration of edaravone in the samples was determined, followed by its mole fractions. The values were averaged from three separate measurements.

A solubility at 24 h (25 °C, aqueous with cosolvent or surfactant or cyclodextrin, water + ETA (ChCl:EG 1:2), x*ETA = 0.2, 298.15 K) of 221 mg/mL, a solubility at 24 h (25 °C, aqueous with cosolvent or surfactant or cyclodextrin, water + ETA (ChCl:EG 1:2), x*ETA = 0.4, 298.15 K) of 407 mg/mL and a solubility at 24 h (25 °C, aqueous with cosolvent or surfactant or cyclodextrin, water + ETA (ChCl:EG 1:2), x*ETA = 0.5, 298.15 K) of 457 mg/mL were found for `CC1=NN(c2ccccc2)C(=O)C1` [edaravone, 5-methyl-2-phenyl-4H-pyrazol-3-one] in this work. It also gave a solubility at 24 h (25 °C, aqueous with cosolvent or surfactant or cyclodextrin, water + GLE (ChCl:GL 1:2), x*GLE = 0.2, 298.15 K) of 115 mg/mL, a solubility at 24 h (25 °C, aqueous with cosolvent or surfactant or cyclodextrin, water + GLE (ChCl:GL 1:2), x*GLE = 0.4, 298.15 K) of 233 mg/mL and a solubility at 24 h (25 °C, aqueous with cosolvent or surfactant or cyclodextrin, water + GLE (ChCl:GL 1:2), x*GLE = 0.5, 298.15 K) of 299 mg/mL. For the same molecule, the solubility at 24 h (25 °C, aqueous with cosolvent or surfactant or cyclodextrin, water + GLE (ChCl:GL 1:2), x*GLE = 0.8, 298.15 K) was 266 mg/mL, the solubility at 24 h (25 °C, organic solvent or mixture, neat DES choline chloride + glycerol (GLE) 1:2 molar ratio (x*GLE = 1.0), 298.15 K) was 191 mg/mL and the solubility at 24 h (25 °C, organic solvent or mixture, neat DES choline chloride + glycerol (GLE) 1:4 molar ratio, 298.15 K) was 177 mg/mL. For the same molecule, the solubility at 24 h (30 °C, aqueous with cosolvent or surfactant or cyclodextrin, water + ETA (ChCl:EG 1:2), x*ETA = 0.2, 303.15 K) was 270 mg/mL, the solubility at 24 h (30 °C, aqueous with cosolvent or surfactant or cyclodextrin, water + ETA (ChCl:EG 1:2), x*ETA = 0.4, 303.15 K) was 505 mg/mL and the solubility at 24 h (30 °C, aqueous with cosolvent or surfactant or cyclodextrin, water + ETA (ChCl:EG 1:2), x*ETA = 0.5, 303.15 K) was 554 mg/mL. For the same molecule, the solubility at 24 h (30 °C, aqueous with cosolvent or surfactant or cyclodextrin, water + GLE (ChCl:GL 1:2), x*GLE = 0.2, 303.15 K) was 148 mg/mL, the solubility at 24 h (30 °C, aqueous with cosolvent or surfactant or cyclodextrin, water + GLE (ChCl:GL 1:2), x*GLE = 0.4, 303.15 K) was 328 mg/mL and the solubility at 24 h (30 °C, aqueous with cosolvent or surfactant or cyclodextrin, water + GLE (ChCl:GL 1:2), x*GLE = 0.5, 303.15 K) was 415 mg/mL. The solubility at 24 h (30 °C, aqueous with cosolvent or surfactant or cyclodextrin, water + GLE (ChCl:GL 1:2), x*GLE = 0.6, 303.15 K) was 464 mg/mL, the solubility at 24 h (30 °C, aqueous with cosolvent or surfactant or cyclodextrin, water + GLE (ChCl:GL 1:2), x*GLE = 0.8, 303.15 K) was 364 mg/mL and the solubility at 24 h (30 °C, organic solvent or mixture, neat DES choline chloride + glycerol (GLE) 1:1 molar ratio, 303.15 K) was 203 mg/mL. For the same molecule, the solubility at 24 h (30 °C, organic solvent or mixture, neat DES choline chloride + glycerol (GLE) 1:2 molar ratio (x*GLE = 1.0), 303.15 K) was 282 mg/mL, the solubility at 24 h (30 °C, organic solvent or mixture, neat DES choline chloride + glycerol (GLE) 1:4 molar ratio, 303.15 K) was 246 mg/mL and the solubility at 24 h (35 °C, aqueous with cosolvent or surfactant or cyclodextrin, water + ETA (ChCl:EG 1:2), x*ETA = 0.2, 308.15 K) was 331 mg/mL. The solubility at 24 h (35 °C, aqueous with cosolvent or surfactant or cyclodextrin, water + ETA (ChCl:EG 1:2), x*ETA = 0.4, 308.15 K) was 603 mg/mL, the solubility at 24 h (35 °C, aqueous with cosolvent or surfactant or cyclodextrin, water + GLE (ChCl:GL 1:2), x*GLE = 0.2, 308.15 K) was 201 mg/mL and the solubility at 24 h (35 °C, aqueous with cosolvent or surfactant or cyclodextrin, water + GLE (ChCl:GL 1:2), x*GLE = 0.4, 308.15 K) was 402 mg/mL. For the same molecule, the solubility at 24 h (35 °C, aqueous with cosolvent or surfactant or cyclodextrin, water + GLE (ChCl:GL 1:2), x*GLE = 0.5, 308.15 K) was 518 mg/mL, the solubility at 24 h (35 °C, aqueous with cosolvent or surfactant or cyclodextrin, water + GLE (ChCl:GL 1:2), x*GLE = 0.6, 308.15 K) was 567 mg/mL and the solubility at 24 h (35 °C, aqueous with cosolvent or surfactant or cyclodextrin, water + GLE (ChCl:GL 1:2), x*GLE = 0.8, 308.15 K) was 472 mg/mL. The solubility at 24 h (35 °C, organic solvent or mixture, neat DES choline chloride + glycerol (GLE) 1:1 molar ratio, 308.15 K) was 274 mg/mL, the solubility at 24 h (35 °C, organic solvent or mixture, neat DES choline chloride + glycerol (GLE) 1:2 molar ratio (x*GLE = 1.0), 308.15 K) was 369 mg/mL and the solubility at 24 h (35 °C, organic solvent or mixture, neat DES choline chloride + glycerol (GLE) 1:4 molar ratio, 308.15 K) was 336 mg/mL. It also gave a solubility at 24 h (40 °C, aqueous with cosolvent or surfactant or cyclodextrin, water + ETA (ChCl:EG 1:2), x*ETA = 0.2, 313.15 K) of 382 mg/mL, a solubility at 24 h (40 °C, aqueous with cosolvent or surfactant or cyclodextrin, water + ETA (ChCl:EG 1:2), x*ETA = 0.4, 313.15 K) of 684 mg/mL and a solubility at 24 h (40 °C, aqueous with cosolvent or surfactant or cyclodextrin, water + GLE (ChCl:GL 1:2), x*GLE = 0.2, 313.15 K) of 252 mg/mL. The solubility at 24 h (40 °C, aqueous with cosolvent or surfactant or cyclodextrin, water + GLE (ChCl:GL 1:2), x*GLE = 0.4, 313.15 K) was 514 mg/mL and the solubility at 24 h (40 °C, aqueous with cosolvent or surfactant or cyclodextrin, water + GLE (ChCl:GL 1:2), x*GLE = 0.5, 313.15 K) was 647 mg/mL.
